Results published in PubChem BioAssay (NCI).
Values joined by “and” are separate entries in the source; they are usually repeats but may differ in a detail not shown here. Identical values can stand only once.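 Protocol summary: plate cells (96-well), add compound at 5 concentrations, incubate 48 h, interpolate endpoints linearly. GI50 = concentration required for 50% inhibition of growth. TGI marks complete inhibition of growth.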

Assays:
Experiment in all cases: NCI-60 cell line screen, 48 h
786-0 renal = tested on: 786-0 renal
A498 renal = tested on: A498 renal
A549 NSCLC = tested on: A549 NSCLC
ACHN renal = tested on: ACHN renal
BT-549 breast = tested on: BT-549 breast
CAKI-1 renal = tested on: CAKI-1 renal
COLO 205 colon = tested on: COLO 205 colon
DLD-1 colon = tested on: DLD-1 colon
DMS 114 small cell lung = tested on: DMS 114 small cell lung
DMS 273 small cell lung = tested on: DMS 273 small cell lung
DU-145 prostate = tested on: DU-145 prostate
EKVX NSCLC = tested on: EKVX NSCLC
HCC-2998 colon = tested on: HCC-2998 colon
HCT-116 colon = tested on: HCT-116 colon
HCT-15 colon = tested on: HCT-15 colon
HL-60(TB) leukemia = tested on: HL-60(TB) leukemia
HOP-18 NSCLC = tested on: HOP-18 NSCLC
HOP-62 NSCLC = tested on: HOP-62 NSCLC
HOP-92 NSCLC = tested on: HOP-92 NSCLC
HS 578T breast = tested on: HS 578T breast
HT29 colon = tested on: HT29 colon
IGROV1 ovarian = tested on: IGROV1 ovarian
K-562 leukemia = tested on: K-562 leukemia
KM20L2 colon = tested on: KM20L2 colon
LOX IMVI melanoma = tested on: LOX IMVI melanoma
LXFL 529 NSCLC = tested on: LXFL 529 NSCLC
M14 melanoma = tested on: M14 melanoma
M19-MEL melanoma = tested on: M19-MEL melanoma
MALME-3M melanoma = tested on: MALME-3M melanoma
MCF7 breast = tested on: MCF7 breast
MDA-MB-231 breast = tested on: MDA-MB-231 breast
MDA-MB-435 = tested on: MDA-MB-435
MDA-N = tested on: MDA-N
MOLT-4 leukemia = tested on: MOLT-4 leukemia
NCI-H226 lung = tested on: NCI-H226 lung
NCI-H23 lung = tested on: NCI-H23 lung
NCI-H460 lung = tested on: NCI-H460 lung
NCI-H522 lung = tested on: NCI-H522 lung
NCI/ADR-RES ovarian = tested on: NCI/ADR-RES ovarian
OVCAR-3 ovarian = tested on: OVCAR-3 ovarian
OVCAR-4 ovarian = tested on: OVCAR-4 ovarian
OVCAR-5 ovarian = tested on: OVCAR-5 ovarian
OVCAR-8 ovarian = tested on: OVCAR-8 ovarian
PC-3 prostate = tested on: PC-3 prostate
RPMI-8226 leukemia = tested on: RPMI-8226 leukemia
RXF 393 renal = tested on: RXF 393 renal
SF-268 CNS = tested on: SF-268 CNS
SF-295 CNS = tested on: SF-295 CNS
SF-539 CNS = tested on: SF-539 CNS
SK-MEL-2 melanoma = tested on: SK-MEL-2 melanoma
SK-MEL-28 melanoma = tested on: SK-MEL-28 melanoma
SK-MEL-5 melanoma = tested on: SK-MEL-5 melanoma
SK-OV-3 ovarian = tested on: SK-OV-3 ovarian
SN12C renal = tested on: SN12C renal
SNB-75 CNS = tested on: SNB-75 CNS
SNB-78 CNS = tested on: SNB-78 CNS
SR leukemia = tested on: SR leukemia
SW-620 colon = tested on: SW-620 colon
T-47D breast = tested on: T-47D breast
TK-10 renal = tested on: TK-10 renal
U251 CNS = tested on: U251 CNS
UACC-257 melanoma = tested on: UACC-257 melanoma
UACC-62 melanoma = tested on: UACC-62 melanoma
UO-31 renal = tested on: UO-31 renal
XF 498 CNS = tested on: XF 498 CNS

## CC[C@@]1(OC(=O)CN(C)C)C(=O)OCc2c1cc1n(c2=O)Cc2cc3ccccc3nc2-1
786-0 renal
  TGI: 1110 nM and 125 nM
A498 renal
  GI50: 85.1 nM
  TGI: 984 nM and 317 nM
A549 NSCLC
  GI50: 42 nM
  TGI: 4330 nM and 7120 nM
ACHN renal
  TGI: 273 nM
BT-549 breast
  GI50: 116 nM
  TGI: 4090 nM and 8640 nM
CAKI-1 renal
  TGI: 2400 nM and 806 nM
COLO 205 colon
  GI50: 288 nM
  TGI: 6300 nM
DLD-1 colon
  GI50: 806 nM
  TGI: 30400 nM
DMS 114 small cell lung
  TGI: 1530 nM
DMS 273 small cell lung
  TGI: 149 nM
DU-145 prostate
  GI50: 20.7 nM
  TGI: 246 nM and 484 nM
EKVX NSCLC
  GI50: 1880 nM
HCC-2998 colon
  GI50: 322 nM
  TGI: 1320 nM and 1760 nM
HCT-116 colon
  GI50: 39.1 nM
HCT-15 colon
  GI50: 257 nM
  TGI: 5030 nM and 3090 nM
HL-60(TB) leukemia
  GI50: 28.2 nM
  TGI: 389 nM and 179 nM
HOP-18 NSCLC
  GI50: 113 nM
HOP-62 NSCLC
  TGI: 1360 nM
HOP-92 NSCLC
  GI50: 216 nM
  TGI: 944 nM and 2190 nM
HS 578T breast
  GI50: 3530 nM
  TGI: > 100000 nM
HT29 colon
  GI50: 156 nM
IGROV1 ovarian
  GI50: 217 nM
  TGI: 4430 nM and > 23300 nM
K-562 leukemia
  GI50: 108 nM
  TGI: 7670 nM and > 41500 nM
KM20L2 colon
  TGI: 4940 nM
LOX IMVI melanoma
  GI50: < 16.1 nM
  TGI: 285 nM and 218 nM
LXFL 529 NSCLC
  GI50: 577 nM
  TGI: 5020 nM and 3350 nM
M14 melanoma
  GI50: 42.4 nM
  TGI: 574 nM and 559 nM
M19-MEL melanoma
  GI50: 101 nM
  TGI: 2130 nM and 1090 nM
MALME-3M melanoma
  GI50: 293 nM
  TGI: 4960 nM and 4890 nM
MCF7 breast
  GI50: 23.5 nM
  TGI: > 100000 nM
MDA-MB-231 breast
  GI50: 1440 nM
  TGI: > 100000 nM
MDA-MB-435
  TGI: 1540 nM
MDA-N
  TGI: 1920 nM and 3800 nM
MOLT-4 leukemia
  TGI: 318 nM and 344 nM
NCI-H226 lung
  TGI: 420 nM and 445 nM
NCI-H23 lung
  GI50: 20.7 nM
  TGI: 342 nM and 381 nM
NCI-H460 lung
  TGI: 147 nM
NCI-H522 lung
  GI50: 39.6 nM
  TGI: 3450 nM and 1680 nM
NCI/ADR-RES ovarian
  GI50: 37.7 nM
OVCAR-3 ovarian
  GI50: 356 nM
  TGI: 2150 nM and 1730 nM
OVCAR-4 ovarian
  GI50: 205 nM
  TGI: 5610 nM and 733 nM
OVCAR-5 ovarian
  GI50: 184 nM
  TGI: 2930 nM and 5920 nM
OVCAR-8 ovarian
  GI50: 52.1 nM
PC-3 prostate
  GI50: 476 nM
RPMI-8226 leukemia
  GI50: 4.64 nM
RXF 393 renal
  GI50: 66.5 nM
  TGI: 643 nM and 430 nM
SF-268 CNS
  GI50: 46.4 nM
SF-295 CNS
  GI50: < 12.7 nM
  TGI: 673 nM and 938 nM
SF-539 CNS
  GI50: < 16.7 nM
  TGI: 57.2 nM and 315 nM
SK-MEL-2 melanoma
  GI50: 1090 nM
  TGI: 3470 nM and 5340 nM
SK-MEL-28 melanoma
  GI50: 1010 nM
SK-MEL-5 melanoma
  GI50: 37.9 nM
  TGI: 316 nM and 213 nM
SK-OV-3 ovarian
  GI50: 123 nM
  TGI: 2880 nM
SN12C renal
  TGI: 4030 nM and 892 nM
SNB-75 CNS
  GI50: 47.5 nM
  TGI: 5800 nM and 4300 nM
SNB-78 CNS
  GI50: 957 nM
  TGI: > 100000 nM
SR leukemia
  GI50: 2.09 nM
  TGI: 114 nM and < 42.7 nM
SW-620 colon
  GI50: 160 nM
T-47D breast
  GI50: 4.98 nM and 45.1 nM
  TGI: 320 nM and 2030 nM
TK-10 renal
  GI50: 481 nM
  TGI: 7850 nM
U251 CNS
  GI50: < 17.5 nM
  TGI: 958 nM and 425 nM
UACC-257 melanoma
  GI50: 131 nM
  TGI: 1120 nM and 1310 nM
UACC-62 melanoma
  GI50: < 12 nM
  TGI: 116 nM and 132 nM
UO-31 renal
  GI50: 18.1 nM
  TGI: 231 nM and 107 nM
XF 498 CNS
  TGI: 3190 nM
